Reference: US20260284080A1 (priority 2025, published 2026)

Test: physchem
Type: physicochemical
Text: Abiraterone acetate is a white to off-white, non-hygroscopic, crystalline powder.

## CC(=O)O[C@H]1CC[C@@]2(C)C(=CC[C@@H]3[C@@H]2CC[C@]2(C)C(c4cccnc4)=CC[C@@H]32)C1 [abiraterone acetate, (3B)-17-(3-pyridinyl) androsta-5,16-dien-3-yl acetate]
  pKa: 5.19
